Assay results taken from ChEMBL document CHEMBL1129866, “S1 heterocyclic thrombin inhibitors” (Bioorg Med Chem Lett, 1997).
pKi: −log10 of the molar value.

Key:
Serine protease 1 = Serine protease 1 (Homo sapiens, UniProt P07477); experiment: Tested for selectivity against trypsin
Coagulation factor X = Coagulation factor X (Homo sapiens, UniProt P00742); experiment: Tested for selectivity against Coagulation factor X
Prothrombin = Prothrombin (Homo sapiens, UniProt P00734); experiment: Tested for the binding affinity against thrombin

Chain of Serine protease 1 (P07477 whole entry): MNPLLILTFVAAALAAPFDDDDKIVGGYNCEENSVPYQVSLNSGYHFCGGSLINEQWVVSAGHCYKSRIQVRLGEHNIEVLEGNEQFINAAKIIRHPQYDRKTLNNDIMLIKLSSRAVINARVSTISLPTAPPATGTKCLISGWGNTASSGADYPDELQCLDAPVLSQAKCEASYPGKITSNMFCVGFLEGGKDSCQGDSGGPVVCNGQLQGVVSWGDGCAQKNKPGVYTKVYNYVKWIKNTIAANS
Chain of Coagulation factor X (P00742 41-179 limits assumed): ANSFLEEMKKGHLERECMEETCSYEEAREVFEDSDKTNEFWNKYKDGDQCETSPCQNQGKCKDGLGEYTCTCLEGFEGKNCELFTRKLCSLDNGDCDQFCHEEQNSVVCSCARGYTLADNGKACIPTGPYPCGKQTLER
Chain of Coagulation factor X (P00742 235-488 limits assumed): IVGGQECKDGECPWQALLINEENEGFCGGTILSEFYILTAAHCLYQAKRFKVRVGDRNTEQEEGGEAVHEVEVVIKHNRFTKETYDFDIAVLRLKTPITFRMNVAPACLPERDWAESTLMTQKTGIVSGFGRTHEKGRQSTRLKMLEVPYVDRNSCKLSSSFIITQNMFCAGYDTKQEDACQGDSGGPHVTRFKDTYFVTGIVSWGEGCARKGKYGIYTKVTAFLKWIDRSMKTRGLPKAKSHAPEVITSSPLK

| Compound | pKi (Serine protease 1) | pKi (Coagulation factor X) | pKi (Prothrombin) |
| --- | --- | --- | --- |
| CC(=O)N[C@H](Cc1ccccc1)C(=O)N1CCC[C@H]1C(=O)N[C@@H](CCCn1ccnc1N)B1O[C@@H]2CC3CC(C3(C)C)[C@]2(C)O1 (stereo partly specified) | 7.70 | < 5.22 | 8.77 |
| CC(=O)N[C@H](Cc1ccccc1)C(=O)N1CCC[C@H]1C(=O)N[C@@H](CCCNc1cc(Cl)nc(N)n1)B1O[C@@H]2CC3CC(C3(C)C)[C@]2(C)O1 (stereo partly specified) | < 5.92 | < 5.22 | 7.37 |
| CC(=O)N[C@H](Cc1ccccc1)C(=O)N1CCC[C@H]1C(=O)N[C@@H](CCCNc1ccnc(N)n1)B1O[C@@H]2CC3CC(C3(C)C)[C@]2(C)O1 (stereo partly specified) |  |  | 6.82 |
| CCCCS(=O)(=O)N[C@H](Cc1ccccc1)C(=O)N1CCC[C@H]1C(=O)N[C@@H](CCCNc1cc(Cl)nc(N)n1)B1O[C@@H]2CC3CC(C3(C)C)[C@]2(C)O1 (stereo partly specified) | 6.67 | < 5.22 | 8.68 |
| CC(=O)N[C@H](Cc1ccccc1)C(=O)N1CCC[C@H]1C(=O)N[C@@H](CCCSc1ncccn1)B1O[C@@H]2CC3CC(C3(C)C)[C@]2(C)O1 (stereo partly specified) | < 5.92 |  | 5.70 |
| CCCCS(=O)(=O)N[C@H](Cc1ccccc1)C(=O)N1CCC[C@H]1C(=O)N[C@@H](CCCSc1ncccn1)B1O[C@@H]2CC3CC(C3(C)C)[C@]2(C)O1 (stereo partly specified) |  |  | 8.06 |
| CCCCS(=O)(=O)N[C@H](Cc1ccccc1)C(=O)N1CCC[C@H]1C(=O)N[C@@H](CCCn1ccnc1N)B1O[C@@H]2CC3CC(C3(C)C)[C@]2(C)O1 (stereo partly specified) | 7.40 | 6.01 | 8.49 |
| CC(=O)N[C@H](Cc1ccccc1)C(=O)N1CCC[C@H]1C(=O)N[C@@H](CCCn1ncnc1[N+](=O)[O-])B1O[C@@H]2CC3CC(C3(C)C)[C@]2(C)O1 (stereo partly specified) | < 5.92 | < 5.22 | 6.70 |
| CC(=O)N[C@H](Cc1ccccc1)C(=O)N1CCC[C@H]1C(=O)N[C@@H](CCCn1ncnc1N)B1O[C@@H]2CC3CC(C3(C)C)[C@]2(C)O1 (stereo partly specified) | < 5.92 | < 5.22 | 6.29 |
| CC(=O)N[C@H](Cc1ccccc1)C(=O)N1CCC[C@H]1C(=O)N[C@@H](CCCn1ccnc1)B1O[C@@H]2CC3CC(C3(C)C)[C@]2(C)O1 (stereo partly specified) | 7.57 | 5.22 | 7.17 |
| CCCCS(=O)(=O)N[C@H](Cc1ccccc1)C(=O)N1CCC[C@H]1C(=O)N[C@@H](CCCn1ccnc1[N+](=O)[O-])B1O[C@@H]2CC3CC(C3(C)C)[C@]2(C)O1 (stereo partly specified) | < 5.92 | 5.22 | 7.82 |
| CC(=O)N[C@H](Cc1ccccc1)C(=O)N1CCC[C@H]1C(=O)N[C@@H](CCCn1ccnc1[N+](=O)[O-])B1O[C@@H]2CC3CC(C3(C)C)[C@]2(C)O1 (stereo partly specified) | < 5.92 | < 5.22 | 6.19 |
| CC(=O)N[C@H](Cc1ccccc1)C(=O)N1CCC[C@H]1C(=O)N[C@@H](CCCN=C(N)N)B(O)O |  | 8.05 |  |
| CC(=O)N[C@H](Cc1ccccc1)C(=O)N1CCC[C@H]1C(=O)N[C@@H](CCCn1nnnc1N)B1O[C@@H]2CC3CC(C3(C)C)[C@]2(C)O1 (stereo partly specified) | < 5.92 | 5.22 | 6.46 |
| CC(=O)N[C@H](Cc1ccccc1)C(=O)N1CCC[C@H]1C(=O)N[C@@H](CCCNc1ncccn1)B1O[C@@H]2CC3CC(C3(C)C)[C@]2(C)O1 (stereo partly specified) | < 5.92 | < 5.22 | 6.22 |
| CC(=O)N[C@H](Cc1ccccc1)C(=O)N1CCC[C@H]1C(=O)N[C@@H](CCCNc1ccccn1)B1O[C@@H]2CC3CC(C3(C)C)[C@]2(C)O1 (stereo partly specified) | < 5.92 | < 5.22 | 6.64 |
